According to ChEMBL document CHEMBL1268882, “Synthesis and biological evaluation of novel triptolide analogues for anticancer activity” (Bioorg Med Chem Lett, 2010):

Legend:
SK-OV-3 = assay: Antiproliferative activity against human SKOV3 cells after 72 hrs by SRB assay; format: functional, cell-based; conditions: SK-OV-3, 72 h
PC-3 = assay: Antiproliferative activity against human PC3 cells after 72 hrs by SRB assay; format: functional, cell-based; conditions: PC-3, 72 h

Compound | IC50 (SK-OV-3) | IC50 (PC-3)
CC(C)[C@@]12O[C@@H]1[C@H]1O[C@]13[C@@]1(C)CCC4=C(COC4=O)[C@H]1C[C@@H]1O[C@@]13C2=O | > 100000 nM | > 100 µM
CC(C)[C@]12O[C@H]1[C@@H]1O[C@]13[C@]1(O[C@H]1C[C@H]1C4=C(CC[C@@]13C)C(=O)OC4)[C@@H]2O [TRIPTOLIDE] | 6 nM | 
CC(C)[C@]12O[C@H]1[C@H]1O[C@]13[C@@]1(C)CCC4=C(COC4=O)[C@H]1C[C@H]1O[C@@]13C2=O | 4600 nM | > 100 µM
CC(C)[C@]12O[C@H]1C=C1[C@]3(O[C@H]3C[C@H]3C4=C(CC[C@]13C)C(=O)NC4)C2=O | 20 nM | 0.9 µM
CC(C)[C@]12O[C@H]1[C@H](O)[C@@]1(O)[C@@]3(C)CCC4=C(COC4=O)[C@@H]3C[C@@H]3O[C@@]31C2=O | > 100000 nM | > 100 µM
CC(C)[C@]12O[C@H]1[C@@H]1O[C@@]13[C@@]1(C)CCC4=C(CNC4=O)[C@@H]1C[C@@H]1O[C@@]13C2=O | 20 nM | 14 µM
CC(C)[C@]12O[C@H]1[C@@H]1O[C@@]13[C@@]1(C)CCC4=C(COC4=O)[C@@H]1C[C@@H]1O[C@@]13C2=O [TRIPTONIDE] | 8 nM | 0.6 µM
CC(C)[C@]12O[C@H]1[C@H]1O[C@]13[C@@]1(C)CCC4=C(COC4=O)[C@H]1C[C@@H]1O[C@@]13C2=O | > 100000 nM | > 100 µM

More lines, now with the values ahead:

IC50 (SK-OV-3) | IC50 (PC-3) | Compound
3 nM | 2.7 µM | CC(C)[C@]12O[C@H]1C=C1[C@]3(O[C@H]3C[C@H]3C4=C(CC[C@]13C)C(=O)OC4)C2=O
> 100000 nM | > 100 µM | CC(C)[C@]12O[C@H]1C=C1[C@]3(O[C@H]3C[C@@H]3C4=C(CC[C@]13C)C(=O)OC4)[C@@H]2O
0.05 nM | 0.01 µM | CC(C)[C@]12O[C@H]1C=C1[C@]3(O[C@H]3C[C@H]3C4=C(CC[C@]13C)C(=O)OC4)[C@@H]2O
95000 nM | > 100 µM | CC(C)[C@@]12O[C@@H]1C=C1[C@]3(O[C@H]3C[C@@H]3C4=C(CC[C@]13C)C(=O)OC4)C2=O
66000 nM | 29 µM | CC(C)[C@]12O[C@H]1C=C1[C@]3(O[C@H]3C[C@@H]3C4=C(CC[C@]13C)C(=O)OC4)C2=O
500 nM | 29 µM | CC(C)[C@]12O[C@H]1C=C1[C@]3(O[C@H]3C[C@H]3C4=C(CC[C@]13C)C(=O)OC4)[C@H]2O
56000 nM | > 100 µM | CC(C)[C@@]12O[C@@H]1C=C1[C@]3(O[C@@H]3C[C@@H]3C4=C(CC[C@]13C)C(=O)OC4)[C@@H]2O
